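Cultured in 96-well plates, cells were exposed to test compound for 48 hours across five concentrations. The concentration for 50% growth inhibition is given as GI50. At the TGI there is no net growth.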
Key:
Experiment in all cases: NCI-60 cell line screen, 48 h
HL-60(TB) leukemia = system: HL-60(TB) leukemia
HCC-2998 colon = system: HCC-2998 colon
SNB-75 CNS = system: SNB-75 CNS
NCI-H460 lung = system: NCI-H460 lung
SF-268 CNS = system: SF-268 CNS
SW-620 colon = system: SW-620 colon
TK-10 renal = system: TK-10 renal
SK-MEL-28 melanoma = system: SK-MEL-28 melanoma
SF-539 CNS = system: SF-539 CNS
LOX IMVI melanoma = system: LOX IMVI melanoma

| SMILES | GI50 (HL-60(TB) leukemia) [µM] | TGI (HL-60(TB) leukemia) [µM] | GI50 (HCC-2998 colon) [µM] | TGI (HCC-2998 colon) [µM] | GI50 (SNB-75 CNS) [µM] | TGI (SNB-75 CNS) [µM] | GI50 (NCI-H460 lung) [µM] | TGI (NCI-H460 lung) [µM] | GI50 (SF-268 CNS) [µM] | TGI (SF-268 CNS) [µM] | GI50 (SW-620 colon) [µM] | TGI (SW-620 colon) [µM] | GI50 (TK-10 renal) [µM] | TGI (TK-10 renal) [µM] | GI50 (SK-MEL-28 melanoma) [µM] | TGI (SK-MEL-28 melanoma) [µM] | GI50 (SF-539 CNS) [µM] | TGI (SF-539 CNS) [µM] | GI50 (LOX IMVI melanoma) [µM] | TGI (LOX IMVI melanoma) [µM] |
| --- | --- | --- | --- | --- | --- | --- | --- | --- | --- | --- | --- | --- | --- | --- | --- | --- | --- | --- | --- | --- |
| CS(=O)(=O)CCNCc1nc(-c2ccc3ncnc(Nc4ccc(OCc5cccc(C(F)(F)F)c5)cc4)c3c2)cs1 | > 25 | > 25 | > 25 | > 25 | 4.86 | 15.7 | > 25 | > 25 | 12.8 | > 25 | > 25 | > 25 | 1.67 | > 25 | > 20.6 | > 25 | > 25 | > 25 | > 25 | > 25 |
| Cn1cc(C2=C(c3cn(CCCCO)c4ccccc34)C(=O)NC2=O)c2ccccc21 | 6.71 | 16.3 | 16.3 | > 25 | 2.31 | > 25 | 8.41 | > 25 | 8.63 | > 25 | 9.26 | > 25 | 10.1 | > 25 | 12.6 | > 25 | 4.91 | 16.7 | 5.62 | > 25 |
| COc1cc(-n2cc(-c3ccc(F)cc3)[nH]c2=O)cc(OC)c1OC | > 100 | > 100 | > 100 | > 100 | 31.5 | 86.3 | > 100 | > 100 | > 100 | > 100 | > 100 | > 100 | > 100 | > 100 | > 100 | > 100 | > 100 | > 100 | > 100 | > 100 |
| O=C1Nc2ccccc2/C1=N\[O-].O=C1Nc2ccccc2/C1=N\[O-].[Cu+2] | > 100 | > 100 | > 100 | > 100 | > 100 | > 100 | > 100 | > 100 | > 100 | > 100 | > 100 | > 100 | > 100 | > 100 | > 100 | > 100 | > 100 | > 100 | > 100 | > 100 |
| Cc1ncc(C(=O)Nc2ccc(CN3CCN(C)CC3)c(C(F)(F)F)c2)cc1C#Cc1cnc(N)c2ccncc12 | 0.79 | 4.06 | 1.86 | 3.39 | 0.854 | 2.21 | 1.38 | 3.02 | 0.702 | 2.99 | 1.49 | 3.3 | 1.6 | 4.19 | 1.27 | 2.82 | 0.548 | 1.79 | 0.337 | 1.4 |
| C=CCCCCOc1ccccc1-c1cnc(OCCCCC=C)n1C | 2.17 | 7.14 | 6.57 | 21.3 | 2.52 | 11.6 | – | – | 4.21 | 21.3 | 2.97 | 11 | 3.5 | 23 | 4.51 | 31.6 | 5.82 | 19.7 | 4.89 | 17 |
| CCN1CCC(O)(c2ccc(OC)cc2)C(C(=O)c2ccc(OC)cc2)C1 (configuration not stated) | – | 46.9 | – | 41.2 | – | 30.6 | – | 59.5 | – | 41.8 | – | 25.9 | – | 10.4 | – | 10.6 | – | 32.4 | – | 45.1 |
| CCOC(=O)Nc1ccc(C)c(NC(=O)OCC)c1 | – | > 100 | – | > 100 | – | > 100 | – | > 100 | – | > 100 | – | > 100 | – | > 100 | – | > 100 | – | > 100 | – | > 100 |
| COc1cc2c(c(OC)c1OC)-c1ccc(SC)c(=O)cc1C(NC=O)CC2 (configuration not stated) | – | 0.0492 | – | > 100 | – | > 21.5 | – | – | – | > 100 | – | > 100 | – | > 100 | – | > 100 | – | < 0.0464 | – | > 41.1 |
| O=C(CSc1nc2ccccc2nc1-c1ccccc1)Nc1ccc(F)cc1 | 66.9 | > 100 | 49.6 | > 100 | 21.6 | 80.8 | 60.7 | > 100 | 41.6 | > 100 | 61 | > 100 | 41.1 | > 100 | 63.9 | > 100 | 18.6 | 35.4 | 68 | > 100 |
| O=C(c1ccccc1Br)C(F)(F)F | – | > 100 | – | > 100 | – | > 100 | – | > 100 | – | > 100 | – | > 100 | – | > 100 | – | > 100 | – | > 100 | – | > 100 |
| NCCNc1c2c(c(NCCN)c3[nH]ccc13)C(=O)c1ccccc1C2=O | 0.132 | 0.47 | < 0.01 | 0.093 | 0.317 | 0.945 | 0.766 | 2.88 | 0.17 | 0.662 | 0.216 | 1.09 | 0.145 | 0.682 | 0.439 | 1.8 | 0.0444 | 0.885 | 0.0111 | 0.242 |
| COc1cc(Cn2c(-c3ccccc3)c(Cl)c3c2-c2oncc2CC3)cc(OC)c1 | 3.32 | 38.6 | 9.97 | > 100 | 5.03 | 75.3 | 4.91 | 84 | 9.61 | > 100 | 3.7 | 19.2 | 26.5 | > 100 | 8.52 | > 100 | 8.19 | 70.9 | 3.06 | 12 |
| CCCN1C(=O)N(CCC)C2C1NC(=S)N2/N=C/C=C/c1ccccc1OC (configuration not stated) | 0.337 | 1.71 | 2.36 | 65.1 | 0.233 | 2.3 | 0.418 | 16.5 | 1.15 | 53.4 | 0.416 | > 100 | 12.6 | > 100 | 6.26 | > 100 | 0.33 | 2.31 | 0.627 | 21.3 |
